Measured values: patent publication US10668123B2, “Capsicum compositions and uses thereof” (OmniActive Health Technologies Limited, priority 2015, dated 2020)

Test system: 3T3L1 cells
Test: Lipolysis in 3T3L1 cells, glycerol release as biomarker
Type: cell-based
Conditions: positive control, time and concentration not given
Description: Pancreatic lipase activity was measured using 4-methylumbelliferyl oleate (MU Oleate) as a substrate via a fluorescence kinetic assay. 3T3L1 cells were treated with capsicum composition (100 μg/1111) at different time points such as 1 hour (h), 2 h, 4 h and 24 h. […] was used as the positive control. Lipolysis was assessed using glycerol release as a biomarker.
Capsicum composition enhanced the lipolysis after 24 h treatment. The ratio of released glycerol/protein content was 1.59, compared to the positive control:isoproterenol (ratio: 1.60).

**Q.** Which “Ratio treated/non treated (lipolysis)” value does the source give for `CC(C)NCC(O)c1ccc(O)c(O)c1` (stereo not shown) [Isoproterenol] here?
**A.** 1.60
